Experimental data published in ChEMBL document CHEMBL4359904, “Structural tuning of acridones for developing anticancer agents targeting dihydrofolate reductase” (Bioorg Med Chem Lett, 2019).
pIC50, pKi: −log10 of the molar value. Calls of active or inactive are those of the source. No cut-off for these calls is given here.

What was measured:
CCRF-CEM [1] = assay: Growth inhibition of human CCRF-CEM cells incubated for 48 hrs by sulforhodamine B assay; type: functional
HCT-116 = assay: Growth inhibition of human HCT116 cells incubated for 48 hrs by sulforhodamine B assay; type: functional; details: HCT-116, 48 h; for CC50: read-out: pLC50 (the source's name) (converted); for TGI: read-out: pTGI (converted)
LOX IMVI = assay: Growth inhibition of human LOXIMVI cells incubated for 48 hrs by sulforhodamine B assay; type: functional; details: for TGI: read-out: pTGI (converted)
Malme-3M = assay: Growth inhibition of human MALME-3M cells incubated for 48 hrs by sulforhodamine B assay; type: functional; details: for CC50: read-out: pLC50 (the source's name) (converted); for TGI: read-out: pTGI (converted)
M14 = assay: Growth inhibition of human M14 cells incubated for 48 hrs by sulforhodamine B assay; type: functional; details: M14, 48 h; for CC50: read-out: pLC50 (the source's name) (converted); for TGI: read-out: pTGI (converted)
SK-MEL-2 = assay: Growth inhibition of human SK-MEL-2 cells incubated for 48 hrs by sulforhodamine B assay; type: functional; details: SK-MEL-2, 48 h; for CC50: read-out: pLC50 (the source's name) (converted); for TGI: read-out: pTGI (converted)
SK-MEL-5 = assay: Growth inhibition of human SK-MEL-5 cells incubated for 48 hrs by sulforhodamine B assay; type: functional; details: SK-MEL-5, 48 h; for CC50: read-out: pLC50 (the source's name) (converted); for TGI: read-out: pTGI (converted)
UACC-257 = assay: Growth inhibition of human UACC257 cells incubated for 48 hrs by sulforhodamine B assay; type: functional; details: UACC-257, 48 h; for CC50: read-out: pLC50 (the source's name) (converted); for TGI: read-out: pTGI (converted)
UACC-62 = assay: Growth inhibition of human UACC62 cells incubated for 48 hrs by sulforhodamine B assay; type: functional; details: UACC-62, 48 h; for CC50: read-out: pLC50 (the source's name) (converted); for TGI: read-out: pTGI (converted)
IGROV-1 [2] = assay: Growth inhibition of human IGROV1 cells incubated for 48 hrs by sulforhodamine B assay; type: functional; details: IGROV-1, 48 h; for CC50: read-out: pLC50 (the source's name) (converted); for TGI: read-out: pTGI (converted)
SK-OV-3 = assay: Growth inhibition of human SKOV3 cells incubated for 48 hrs by sulforhodamine B assay; type: functional; details: SK-OV-3, 48 h; for CC50: read-out: pLC50 (the source's name) (converted)
RXF 393 = assay: Growth inhibition of human RXF393 cells incubated for 48 hrs by sulforhodamine B assay; type: functional; details: RXF 393, 48 h; for CC50: read-out: pLC50 (the source's name) (converted); for TGI: read-out: pTGI (converted)
MCF7 = assay: Growth inhibition of human MCF7 cells incubated for 48 hrs by sulforhodamine B assay; type: functional; details: MCF7, 48 h; for TGI: read-out: pTGI (converted)
MDA-MB-468 = assay: Growth inhibition of human MDA-MB-468 cells incubated for 48 hrs by sulforhodamine B assay; type: functional; details: MDA-MB-468, 48 h; for CC50: read-out: pLC50 (the source's name) (converted); for TGI: read-out: pTGI (converted)
CCRF-CEM [3] = assay: Growth inhibition of human CCRF-CEM cells at 10^-5 M incubated for 48 hrs by sulforhodamine B assay relative to control; type: functional; details: read-out: GI
K562 = assay: Growth inhibition of human K562 cells at 10^-5 M incubated for 48 hrs by sulforhodamine B assay relative to control; type: functional; details: K562, 48 h, read-out: GI
RPMI-8226 = assay: Growth inhibition of human RPMI8226 cells at 10^-5 M incubated for 48 hrs by sulforhodamine B assay relative to control; type: functional; details: RPMI-8226, 48 h, read-out: GI
IGROV-1 [4] = assay: Growth inhibition of human IGROV1 cells at 10^-5 M incubated for 48 hrs by sulforhodamine B assay relative to control; type: functional; details: IGROV-1, 48 h, read-out: GI
OVCAR-5 = assay: Growth inhibition of human OVCAR5 cells at 10^-5 M incubated for 48 hrs by sulforhodamine B assay relative to control; type: functional; details: OVCAR-5, 48 h, read-out: GI
HT-29 = assay: Growth inhibition of human HT-29 cells at 10^-5 M incubated for 48 hrs by sulforhodamine B assay relative to control; type: functional; details: HT-29, 48 h, read-out: GI
C6 [5] = assay: Antiproliferative activity against rat C6 cells assessed as decrease in cell viability measured after 48 hrs by MTT assay; type: functional, cell-based; details: for pIC50: C6, 48 h
C6 [6] = assay: Cell cycle arrest in rat C6 cells assessed as decrease in cell population at S phase measured after 24 hrs by propidium iodide staining based flow cytometry analysis; type: functional
[7] = target: T1, Dihydrofolate reductase (Homo sapiens) (UniProt P00374); assay: Competitive inhibition of human dihydrofolate reductase at 30 uM using varying levels of dihydrofolic acid as substrate preincubated for 1 hr in presence of NADPH followed by substrate addition by Line weaver-Burk based double reciprocal plot analysis
T1 sequence (whole entry): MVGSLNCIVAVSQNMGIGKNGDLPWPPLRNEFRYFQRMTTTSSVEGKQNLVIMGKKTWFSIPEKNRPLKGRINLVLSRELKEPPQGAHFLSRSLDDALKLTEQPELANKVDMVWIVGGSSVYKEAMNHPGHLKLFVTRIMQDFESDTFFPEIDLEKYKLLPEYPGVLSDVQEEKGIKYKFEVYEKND

Dihydrofolate reductase = target: T2, Dihydrofolate reductase (Homo sapiens, UniProt P00374); assay: Inhibition of human dihydrofolate reductase assessed as inhibition constant by UV-Vis spectra based Benesi Hilebrand equation analysis
T2 sequence (P00374 whole entry): T1 sequence (whole entry)

C6 [8] = assay: Induction of morphological changes in rat C6 cells assessed as apperance of differentiated morphology with fine and elongated processes after 24 hrs by inverted microscopy analysis; type: functional, cell-based
C6 [9] = assay: Cell cycle arrest in rat C6 cells assessed as cell population at G0/G1 phase measured after 24 hrs by propidium iodide staining based flow cytometry analysis; type: functional
C6 [10] = assay: Induction of morphological changes in rat C6 cells assessed as cellular senescence by measuring cell rounding with distorted morphology after 24 hrs by inverted microscopy analysis; type: functional, cell-based
[11] = read-out: LC50 (the source's name)
[12] = read-out: pLC50 (the source's name) (converted)

Compound `O=C(OC[C@@H]1CO1)c1cccc2c(=O)c3ccccc3[nH]c12` has a GI50 (CCRF-CEM [1]; read-out: GI50) of 770 nM, a CC50 (CCRF-CEM [1]; [11]) of over 100000 nM and a CC50 (CCRF-CEM [1]; [12]) of over 100000 nM. The TGI (CCRF-CEM [1]; read-out: pTGI (converted)) was 21900 nM, the GI50 (HCT-116) was 1120 nM and the CC50 (HCT-116) was over 100000 nM. The TGI (HCT-116) was 8710 nM, the GI50 (LOX IMVI; read-out: pGI50 (converted)) was 1510 nM and the CC50 (LOX IMVI; [12]) was 6610 nM. The TGI (LOX IMVI) was 3160 nM, the GI50 (Malme-3M) was 1660 nM and the CC50 (Malme-3M) was 6170 nM. The TGI (Malme-3M) was 3160 nM, the GI50 (M14) was 1660 nM and the CC50 (M14) was 9120 nM. It also gave a TGI (M14) of 3890 nM, a GI50 (SK-MEL-2) of 1950 nM and a CC50 (SK-MEL-2) of 7410 nM. For the same compound, the TGI (SK-MEL-2) was 3800 nM, the GI50 (SK-MEL-5) was 1510 nM and the CC50 (SK-MEL-5) was 5500 nM. It also gave a TGI (SK-MEL-5) of 2880 nM, a GI50 (UACC-257) of 2090 nM and a CC50 (UACC-257) of 9550 nM. It also gave a TGI (UACC-257) of 4470 nM, a GI50 (UACC-62) of 1580 nM and a CC50 (UACC-62) of 6030 nM. It also gave a TGI (UACC-62) of 3090 nM, a GI50 (IGROV-1 [2]) of 1550 nM and a CC50 (IGROV-1 [2]) of over 100000 nM. For the same compound, the TGI (IGROV-1 [2]) was 5620 nM, the GI50 (SK-OV-3) was 2630 nM and the CC50 (SK-OV-3) was over 100000 nM. The TGI (SK-OV-3; read-out: pTGI (converted)) was 7410 nM, the GI50 (RXF 393) was 1380 nM and the CC50 (RXF 393) was 5750 nM. The TGI (RXF 393) was 2820 nM, the GI50 (MCF7; read-out: GI50) was 380 nM and the CC50 (MCF7; [11]) was over 100000 nM. For the same compound, the GI50 (MCF7; read-out: pGI50 (converted)) was 389 nM, the CC50 (MCF7; [12]) was over 100000 nM and the TGI (MCF7) was 2950 nM. It also gave a GI50 (MDA-MB-468) of 1820 nM, a CC50 (MDA-MB-468) of 7940 nM and a TGI (MDA-MB-468) of 3800 nM. For the same compound, the inhibition of growth at 10 µM (CCRF-CEM [3]) was 93%, the inhibition of growth at 10 µM (K562) was 95% and the inhibition of growth at 10 µM (RPMI-8226) was 100%. It also gave an inhibition of growth at 10 µM (IGROV-1 [4]) of 100%, an inhibition of growth at 10 µM (OVCAR-5) of 100% and an inhibition of growth at 10 µM (HT-29) of 100%. For the same compound, the inhibition (C6 [5]) was “Dose-dependent effect”, the pIC50 (C6 [5]) was 5.82 to 6.60 and the inhibition (C6 [6]) was “Active”. The inhibition [7] was “Active”, the pKi (Dihydrofolate reductase) was 7.04 and the Activity (C6 [8]) was “Active”. The Activity (C6 [9]) was “inactive”.

Compound `O=c1c2ccccc2n(CC2CO2)c2ccccc12` (racemic) has a GI50 (CCRF-CEM [1]; read-out: GI50) of 70 nM, a CC50 (CCRF-CEM [1]; [11]) of over 100000 nM and a GI50 (CCRF-CEM [1]; read-out: pGI50 (converted)) of 76.9 nM. For the same compound, the CC50 (CCRF-CEM [1]; [12]) was over 100000 nM, the GI50 (HCT-116) was 126 nM and the CC50 (HCT-116) was over 100000 nM. It also gave a TGI (HCT-116) of 10000 nM, a GI50 (LOX IMVI; read-out: GI50) of 120 nM and a CC50 (LOX IMVI; [11]) of 5120 nM. For the same compound, the GI50 (LOX IMVI; read-out: pGI50 (converted)) was 126 nM, the CC50 (LOX IMVI; [12]) was 5130 nM and the TGI (LOX IMVI) was 646 nM. It also gave a GI50 (Malme-3M) of 589 nM, a CC50 (Malme-3M) of 4900 nM and a TGI (Malme-3M) of 2000 nM. It also gave a GI50 (M14) of 331 nM, a CC50 (M14) of 6170 nM and a TGI (M14) of 1510 nM. For the same compound, the GI50 (SK-MEL-2) was 234 nM, the CC50 (SK-MEL-2) was 2040 nM and the TGI (SK-MEL-2) was 513 nM. It also gave a GI50 (SK-MEL-5) of 209 nM, a CC50 (SK-MEL-5) of 1120 nM and a TGI (SK-MEL-5) of 468 nM. For the same compound, the GI50 (UACC-257) was 457 nM, the CC50 (UACC-257) was over 100000 nM and the TGI (UACC-257) was 2820 nM. It also gave a GI50 (UACC-62) of 234 nM, a CC50 (UACC-62) of 2400 nM and a TGI (UACC-62) of 603 nM. The GI50 (IGROV-1 [2]) was 331 nM, the CC50 (IGROV-1 [2]) was 67600 nM and the TGI (IGROV-1 [2]) was 2570 nM. The GI50 (SK-OV-3) was 1410 nM, the CC50 (SK-OV-3) was over 100000 nM and the GI50 (RXF 393) was 214 nM. The CC50 (RXF 393) was 2290 nM, the TGI (RXF 393) was 513 nM and the GI50 (MCF7; read-out: GI50) was 50 nM. For the same compound, the CC50 (MCF7; [11]) was over 100000 nM, the GI50 (MCF7; read-out: pGI50 (converted)) was 55 nM and the CC50 (MCF7; [12]) was over 100000 nM. For the same compound, the TGI (MCF7) was 741 nM, the GI50 (MDA-MB-468) was 1200 nM and the CC50 (MDA-MB-468) was 7940 nM. For the same compound, the TGI (MDA-MB-468) was 3090 nM, the inhibition of growth at 10 µM (CCRF-CEM [3]) was 93% and the inhibition of growth at 10 µM (K562) was 92%. For the same compound, the inhibition of growth at 10 µM (RPMI-8226) was 100%, the inhibition of growth at 10 µM (IGROV-1 [4]) was 100% and the inhibition of growth at 10 µM (OVCAR-5) was 100%. For the same compound, the inhibition of growth at 10 µM (HT-29) was 100%, the inhibition (C6 [5]) was “Dose-dependent effect” and the pIC50 (C6 [5]) was 5.82 to 6.60. The pKi (Dihydrofolate reductase) was 5.80, the Activity (C6 [10]) was “Active” and the Activity (C6 [9]) was “inactive”.
